Assay results: publication PMC4060991, “The Human Orphan Nuclear Receptor Tailless (TLX, NR2E1) Is Druggable” (PLoS ONE, 2014)
Counter-ions that a name gives are not always drawn.

What follows are molecules tested against TLX LBD (Homo sapiens, UniProt Q9Y466) (assay: Differential scanning fluorimetry (DSF) on purified TLX LBD). Details: compound 500 µM.
Format: binding
Set-up: cDNA fragments encoding human TLX LBD (a.a. 187–385) were cloned; His6 followed by TEV protease cleavage site (N); made in house; host or cells: E. coli BL21 (DE3) star
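Note: thermal unfolding followed by Sypro-Orange fluorescence (excitation 465 nm, emission 610 nm) in 384-well plates, Tm taken from the first derivative of the denaturation curve, duplicate samples.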

TLX LBD, sequence (Q9Y466 187-385): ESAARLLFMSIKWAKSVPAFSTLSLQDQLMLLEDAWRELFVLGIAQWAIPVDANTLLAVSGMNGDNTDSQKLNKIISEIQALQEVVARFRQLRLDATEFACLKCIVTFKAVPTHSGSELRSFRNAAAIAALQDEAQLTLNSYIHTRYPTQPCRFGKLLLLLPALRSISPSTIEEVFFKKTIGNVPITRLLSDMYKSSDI

Row | SMILES | hit in DSF screen (able to bind TLX LBD, Tm shift 0.9°C or more), Table S1
1 | O=NN(CCCl)C(=O)NCc1ccc[n+]([O-])c1 [1-(2-chloroethyl)-1-nitroso-3-[(1-oxidopyridin-1-ium-3-yl)methyl]urea] | Hits from DSF
2 | Cc1cc(N)c2ccccc2[n+]1CCCCCCCCCC[n+]1c(C)cc(N)c2ccccc21.[Cl-].[Cl-] [1-[10-(4-amino-2-methylquinolin-1-ium-1-yl)decyl]-2-methylquinolin-1-ium-4-amine chloride] | Hits from DSF
3 | Cc1ccc(S(=O)(=O)c2ccc([N+](=O)[O-])o2)cc1 [2-(4-methylphenyl)sulfonyl-5-nitrofuran] | Hits from DSF
4 | O=[N+]([O-])c1cc(C(F)(F)F)cc([N+](=O)[O-])c1CCl [2-(chloromethyl)-1,3-dinitro-5-(trifluoromethyl)benzene] | Hits from DSF
5 | COc1cc2c(cc1O)CC[C@@H]1[C@@H]2CC[C@]2(C)[C@@H](O)CC[C@@H]12 [2-Methoxyestradiol] | Hits from DSF
6 | COC1CC(CC2CCC(C)C(C(C)C(=O)O)O2)OC2(OC(C)(C3CCC(C)(C4OC(C5OC(O)(CO)C(C)CC5C)CC4C)O3)CC2C)C1C (centres unmarked) [2-[6-[[2-[5-[5-[6-hydroxy-6-(hydroxymethyl)-3,5-dimethyloxan-2-yl]-3-methyloxolan-2-yl]-5-methyloxolan-2-yl]-9-methoxy-2,4,10-trimethyl-1,6-dioxaspiro[4.5]decan-7-yl]methyl]-3-methyloxan-2-yl]propanoic acid] | Hits from DSF
7 | O=C1c2ccccc2C(=O)C1C(c1ccc([N+](=O)[O-])cc1)C1C(=O)c2ccccc2C1=O [2-[(1,3-dioxoinden-2-yl)-(4-nitrophenyl)methyl]indene-1,3-dione] | Hits from DSF
8 | CCCCCCCCCCCCC(O)C(=O)O (centres unmarked) [2-hydroxytetradecanoic acid] | Hits from DSF
9 | CCCCCC(CN1CCOCC1)C(=O)C=Cc1ccccc1 (centres unmarked) [4-(morpholin-4-ylmethyl)-1-phenylnon-1-en-3-one] | Hits from DSF
10 | O=C(O)c1ccc(NC(c2ccccc2)c2ccc3cccnc3c2O)cc1 (centres unmarked) [4-[[(8-hydroxyquinolin-7-yl)-phenylmethyl]amino]benzoic acid] | Hits from DSF
11 | N#Cc1c(O)c2c(-c3ccc(-c4ccccc4O)cc3)csc2[nH]c1=O [6,7-Dihydro-4-hydroxy-3-(2'-hydroxy[1,1'-biphenyl]-4-yl)-6-oxo-thieno[2,3-b]pyridine-5-carbonitrile] | Hits from DSF
12 | CC(C)C1(Cl)CCC2C3(C)CCCC(C)(C(=O)O)C3CC(Cl)C2(Cl)C1Cl (centres unmarked) [7,8,8a,9-tetrachloro-1,4a-dimethyl-7-propan-2-yl-2,3,4,4b,5,6,8,9,10,10a-decahydrophenanthrene-1-carboxylic acid] | Hits from DSF
13 | N#C/C(=C\c1ccc2ccccc2c1)C(=O)c1ccccc1 [(E)-2-(benzoyl)-3-naphthalen-2-ylprop-2-enenitrile] | Hits from DSF
14 | CCN1CCN(C(=O)Cc2ccc(Nc3ncc(F)c(Nc4ccc(C(=O)Nc5ccccc5Cl)cc4)n3)cc2)CC1 [Aurora A Inhibitor I] | Hits from DSF
15 | N#CCNC(=O)c1ccc(-c2ccnc(Nc3ccc(N4CCOCC4)cc3)n2)cc1 [CYT387] | Hits from DSF
16 | CCP(CC)CC.[Au+].[Cl-] [Chlorogold; Triethylphosphane] | Hits from DSF
17 | C[C@@H](NCCCc1cccc(C(F)(F)F)c1)c1cccc2ccccc12 [Cinacalcet hydrochloride, reference compound] | Hits from DSF
18 | Clc1ccccc1C(c1ccccc1)(c1ccccc1)n1ccnc1 [Clotrimazole, reference compound] | Hits from DSF
19 | CC(C)(C)OC(=O)N[C@H]1CCCCC/C=C\[C@@H]2C[C@@]2(C(=O)NS(=O)(=O)C2CC2)NC(=O)[C@@H]2C[C@@H](OC(=O)N3Cc4cccc(F)c4C3)CN2C1=O [Danoprevir] | Hits from DSF
20 | CO[C@H]1C[C@@H]2CC[C@@H](C)[C@@](O)(O2)C(=O)C(=O)N2CCCC[C@H]2C(=O)O[C@H]([C@H](C)C[C@@H]2CC[C@@H](OP(C)(C)=O)[C@H](OC)C2)CC(=O)[C@H](C)/C=C(\C)[C@@H](O)[C@@H](OC)C(=O)[C@H](C)C[C@H](C)/C=C/C=C/C=C/1C [Deforolimus] | Hits from DSF
21 | [Cl][Cd][Cl] [Dichlorocadmium] | Hits from DSF
22 | CO[C@H]1C[C@@H]2CC[C@@H](C)[C@@](O)(O2)C(=O)C(=O)N2CCCC[C@H]2C(=O)O[C@H]([C@H](C)C[C@@H]2CC[C@@H](OCCO)[C@H](OC)C2)CC(=O)[C@H](C)/C=C(\C)[C@@H](O)[C@@H](OC)C(=O)[C@H](C)C[C@H](C)/C=C/C=C/C=C/1C [Everolimus (RAD001), Everolimus, reference compound] | Hits from DSF

Row | SMILES | hit in DSF screen (able to bind TLX LBD, Tm shift 0.9°C or more), Table S1
23 | CC(C)n1c(/C=C/C(O)CC(O)CC(=O)O)c(-c2ccc(F)cc2)c2ccccc21 (centres unmarked) [Fluvastatin Sodium, reference compound] | Hits from DSF
24 | CC(=O)N1CCN(c2ccc(OCC3COC(Cn4ccnc4)(c4ccc(Cl)cc4Cl)O3)cc2)CC1 (centres unmarked) [Ketoconazole, reference compound] | Hits from DSF
25 | CCOC(=O)N1CCC(=C2c3ccc(Cl)cc3CCc3cccnc32)CC1 [Loratadine, reference compound] | Hits from DSF
26 | COc1cc(Nc2ncc3c(n2)-c2ccc(Cl)cc2C(c2c(F)cccc2OC)=NC3)ccc1C(=O)O [MLN8237] | Hits from DSF
27 | Cc1ccc(NC(=O)c2ccc(CN3CCN(C)CC3)cc2)cc1Nc1nc(-c2cccnc2)cs1 [Masitinib] | Hits from DSF
28 | CC(C)c1cnn2c(NCc3ccccc3)cc(NCCCCCCN)nc12 [N5-(6-Aminohexyl)-3-isopropyl-N7-benzylpyrazolo[1,5-a]pyrimidine-5,7-diamine] | Hits from DSF
29 | Nc1ncnc2c1c(-c1cccc(OCc3ccccc3)c1)cn2C1CC(CN2CCCC2)C1 (centres unmarked) [NVP-ADW742] | Hits from DSF
30 | COc1cccc2cc(-c3nc([C@H]4CC[C@H](C(=O)O)CC4)n4ncnc(N)c34)[nH]c12 [OSI-027] | Hits from DSF
31 | O=C(CCc1ccc(O)cc1)c1c(O)cc(O)cc1O [Phloretin] | Hits from DSF
32 | CC(=O)[C@H]1CC[C@H]2[C@@H]3CCC4=CC(=O)CC[C@]4(C)[C@H]3CC[C@]12C [Progesterone, reference compound] | Hits from DSF
33 | O=C(c1ccc(OCCN2CCCCC2)cc1)c1c(-c2ccc(O)cc2)sc2cc(O)ccc12 [Raloxifene, reference compound] | Hits from DSF
34 | CC[C@H](CO)Nc1nc(NCc2ccccc2)c2ncn(C(C)C)c2n1 [Roscovitine (CYC202), Roscovitine] | Hits from DSF
35 | Cn1cc(-c2ccc3nnc(Sc4ccc5ncccc5c4)n3n2)cn1 [SGX-523] | Hits from DSF
36 | Cc1cc(C(C)Nc2ccccc2)c2nc(N3CCOCC3)cc(=O)n2c1 (centres unmarked) [TGX-221] | Hits from DSF
37 | C[C@]12CC[C@H]3[C@@H](CCC4=CC(=O)CC[C@@]43C)[C@@H]1CC[C@@H]2OC(=O)CCC1CCCC1 [Testosterone cypionate, reference compound] | Hits from DSF
38 | CCC[CH2][Pb]([Cl])([CH2]CCC)[CH2]CCC [Tributyl(chloro)plumbane] | Hits from DSF
39 | CCC1=C[C@@H]2CN(C1)Cc1c([nH]c3ccccc13)[C@@](C(=O)OC)(c1cc3c(cc1OC)N(C)[C@H]1[C@@](O)(C(=O)OC)[C@H](OC(C)=O)[C@]4(CC)C=CCN5CC[C@]31[C@@H]54)C2 [Vinorelbine, reference compound] | Hits from DSF
40 | FC(F)c1nc2ccccc2n1-c1nc(N2CCOCC2)nc(N2CCOCC2)n1 [ZSTK474] | Hits from DSF
41 | CC(=O)OC(C)(C)/C=C/C(=O)[C@](C)(O)[C@H]1[C@H](O)C[C@@]2(C)[C@@H]3CC=C4[C@@H](C[C@H](O)C(=O)C4(C)C)[C@]3(C)C(=O)C[C@]12C [[(E,6R)-6-[(2S,8S,9R,10R,13R,14S,16R,17R)-2,16-dihydroxy-4,4,9,13,14-pentamethyl-3,11-dioxo-2,7,8,10,12,15,16,17-octahydro-1H-cyclopenta[a]phenanthren-17-yl]-6-hydroxy-2-methyl-5-oxohept-3-en-2-yl] acetate] | Hits from DSF
42 | CNC(=O)ON(C(C)=O)C(=O)NC [[acetyl(methylcarbamoyl)amino] N-methylcarbamate] | Hits from DSF
43 | CC(=O)[O][Pb]([O]C(C)=O)([c]1ccccc1)[c]1ccccc1 [[acetyloxy-di(phenyl)plumbyl] acetate] | Hits from DSF
44 | CC(=O)[O][Hg][c]1c(C)c(C)c(C)c(C)c1C [acetyloxy-(2,3,4,5,6-pentamethylphenyl)mercury] | Hits from DSF
